Key:
[1] = test system: CCRF-CEM; assay: Cytotoxicity against human CCRF-CEM cells assessed as reduction in cell viability measured after 72 hrs by MTS assay; format: functional, cell-based
[2] = test system: CEM-DNR; assay: Cytotoxicity against daunorubicin resistant human CEM-DNR cells assessed as reduction in cell viability measured after 72 hrs by MTS assay; format: functional, cell-based
[3] = test system: HCT-116; assay: Cytotoxicity against human HCT-116 cells assessed as reduction in cell viability measured after 72 hrs by MTS assay; format: functional, cell-based; conditions: HCT-116, 72 h
[4] = Cytotoxicity against human HCT116 p53-null cells assessed as reduction in cell viability measured after 72 hrs by MTS assay; format: functional, cell-based
[5] = test system: K562; assay: Cytotoxicity against human K562 cells assessed as reduction in cell viability measured after 72 hrs by MTS assay; format: functional, cell-based; conditions: K562, 72 h
[6] = Cytotoxicity against paclitaxel resistant human K562-Tax cells assessed as reduction in cell viability measured after 72 hrs by MTS assay; format: functional, cell-based
[7] = test system: A549; assay: Cytotoxicity against human A549 cells assessed as reduction in cell viability measured after 72 hrs by MTS assay; format: functional, cell-based; conditions: A549, 72 h
[8] = test system: U2OS; assay: Cytotoxicity against human U2OS cells assessed as reduction in cell viability measured after 72 hrs by MTS assay; format: functional, cell-based
[9] = test system: BJ; assay: Cytotoxicity against human BJ cells assessed as reduction in cell viability measured after 72 hrs by MTS assay; format: cell-based
[10] = test system: MRC5; assay: Cytotoxicity against human MRC5 cells assessed as reduction in cell viability measured after 72 hrs by MTS assay; format: cell-based; conditions: MRC5, 72 h

Compound | IC50 [1] [µM] | IC50 [2] [µM] | IC50 [3] [µM] | IC50 [4] [µM] | IC50 [5] [µM] | IC50 [6] [µM] | IC50 [7] [µM] | IC50 [8] [µM] | IC50 [9] [µM] | IC50 [10] [µM]
C=C(/C=C/c1cccc([N+](=O)[O-])c1)[C@@H]1CC[C@]2(C(=O)O)CC[C@]3(C)[C@H](CC[C@@H]4[C@@]5(C)CC[C@H](O)C(C)(C)[C@@H]5CC[C@]43C)[C@@H]12 | 12.4 | 25.3 | 37.5 | 35.5 | > 50 | 24.3 | 48.8 | 29.3 | > 50 | 45.1
C=C(/C=C/c1ccccc1Cl)[C@@H]1CC[C@]2(C(=O)O)CC[C@]3(C)[C@H](CC[C@@H]4[C@@]5(C)CC[C@H](O)C(C)(C)[C@@H]5CC[C@]43C)[C@@H]12 | 18.7 | 42.1 | 26.6 | 24.8 | 23.9 | 39.3 | 29.4 | 28.1 | 42.3 | 32.6
C=C(/C=C/c1cccc(C(=O)O)c1)[C@@H]1CC[C@]2(C(=O)O)CC[C@]3(C)[C@H](CC[C@@H]4[C@@]5(C)CC[C@H](O)C(C)(C)[C@@H]5CC[C@]43C)[C@@H]12 | 20.1 | 33.9 | 43.4 | 43.1 | > 50 | 36.7 | > 50 | > 50 | > 50 | > 50
C=C(/C=C/c1ccccn1)[C@@H]1CC[C@]2(C(=O)O)CC[C@]3(C)[C@H](CC[C@@H]4[C@@]5(C)CC[C@H](O)C(C)(C)[C@@H]5CC[C@]43C)[C@@H]12 | 19.7 | 27.7 | > 50 | > 50 | > 50 | 29.2 | > 50 | > 50 | > 50 | > 50
C=C(/C=C/c1ccccc1)[C@@H]1CC[C@]2(C(=O)O)CC[C@]3(C)[C@H](CC[C@@H]4[C@@]5(C)CC[C@H](O)C(C)(C)[C@@H]5CC[C@]43C)[C@@H]12 | 6.5 | 30.2 | 35.5 | 39.5 | 40 | 25.3 | 41.8 | 24.2 | > 50 | > 50
C=C(/C=C/c1c(F)c(F)c(F)c(F)c1F)[C@@H]1CC[C@]2(C(=O)O)CC[C@]3(C)[C@H](CC[C@@H]4[C@@]5(C)CC[C@H](O)C(C)(C)[C@@H]5CC[C@]43C)[C@@H]12 | 22.1 | > 50 | 32.2 | 36.3 | 29.8 | > 50 | 32.2 | 30.2 | > 50 | 43.2
C=C(/C=C/c1ccccc1C)[C@@H]1CC[C@]2(C(=O)O)CC[C@]3(C)[C@H](CC[C@@H]4[C@@]5(C)CC[C@H](O)C(C)(C)[C@@H]5CC[C@]43C)[C@@H]12 | 19.1 | 22.8 | 29.7 | 25.9 | 28.1 | 25.9 | 26.8 | 28 | 33 | 31.5
C=C(/C=C/c1ccccc1C(F)(F)F)[C@@H]1CC[C@]2(C(=O)O)CC[C@]3(C)[C@H](CC[C@@H]4[C@@]5(C)CC[C@H](O)C(C)(C)[C@@H]5CC[C@]43C)[C@@H]12 | 21.8 | > 50 | 33 | 36.1 | 48.7 | > 50 | 37 | 29.6 | > 50 | > 50
C=C(/C=C/c1ccc(Br)cc1)[C@@H]1CC[C@]2(C(=O)O)CC[C@]3(C)[C@H](CC[C@@H]4[C@@]5(C)CC[C@H](O)C(C)(C)[C@@H]5CC[C@]43C)[C@@H]12 | 6.5 | 28.9 | 33.2 | 31.8 | > 50 | 29.3 | > 50 | 27 | > 50 | 35.2
C=CC(=C)[C@@H]1CC[C@]2(C(=O)O)CC[C@]3(C)[C@H](CC[C@@H]4[C@@]5(C)CC[C@H](O)C(C)(C)[C@@H]5CC[C@]43C)[C@@H]12 | 11.1 | 25.1 | 24.1 | 24.3 | 15.7 | 26.2 | 23.9 | 24.1 | 44.6 | 24.3
C=C(/C=C/c1ccccc1[N+](=O)[O-])[C@@H]1CC[C@]2(C(=O)O)CC[C@]3(C)[C@H](CC[C@@H]4[C@@]5(C)CC[C@H](O)C(C)(C)[C@@H]5CC[C@]43C)[C@@H]12 | 23.7 | 30.6 | 34.8 | 39.3 | > 50 | 29.8 | 45.2 | 33.1 | > 50 | > 50
C=C(/C=C/c1cc(OC)cc(OC)c1)[C@@H]1CC[C@]2(C(=O)O)CC[C@]3(C)[C@H](CC[C@@H]4[C@@]5(C)CC[C@H](O)C(C)(C)[C@@H]5CC[C@]43C)[C@@H]12 | 10 | 13.7 | 17.3 | 20.8 | 22.2 | 16 | 19 | 22.3 | 47.6 | 29.2
C=C(/C=C/c1cccc(Br)c1)[C@@H]1CC[C@]2(C(=O)O)CC[C@]3(C)[C@H](CC[C@@H]4[C@@]5(C)CC[C@H](O)C(C)(C)[C@@H]5CC[C@]43C)[C@@H]12 | 8.8 | 35.9 | 25.3 | 26.8 | 23.6 | 32.8 | 33.1 | 27.6 | > 50 | > 50
C=C(/C=C/c1ccc(F)c(Cl)c1)[C@@H]1CC[C@]2(C(=O)O)CC[C@]3(C)[C@H](CC[C@@H]4[C@@]5(C)CC[C@H](O)C(C)(C)[C@@H]5CC[C@]43C)[C@@H]12 | 5.5 | 27.8 | 21.8 | 20.8 | 40.6 | 25.2 | 45.5 | 26.5 | > 50 | 32.4
C=C(/C=C/c1ccc(C#N)cc1)[C@@H]1CC[C@]2(C(=O)O)CC[C@]3(C)[C@H](CC[C@@H]4[C@@]5(C)CC[C@H](O)C(C)(C)[C@@H]5CC[C@]43C)[C@@H]12 | 23.8 | 27 | 39.1 | 43.3 | > 50 | 27.2 | > 50 | 44.1 | > 50 | 49.7
C=C(/C=C/C1CCCCC1)[C@@H]1CC[C@]2(C(=O)O)CC[C@]3(C)[C@H](CC[C@@H]4[C@@]5(C)CC[C@H](O)C(C)(C)[C@@H]5CC[C@]43C)[C@@H]12 | 8 | 45.7 | 15.2 | > 50 | > 50 | 43.6 | > 50 | > 50 | > 50 | > 50
C=C(/C=C/c1ccc(C(C)(C)C)cc1)[C@@H]1CC[C@]2(C(=O)O)CC[C@]3(C)[C@H](CC[C@@H]4[C@@]5(C)CC[C@H](O)C(C)(C)[C@@H]5CC[C@]43C)[C@@H]12 | 45.6 | > 50 | > 50 | > 50 | > 50 | > 50 | > 50 | 45.1 | > 50 | > 50
C=C(/C=C/c1ccc2ccccc2c1)[C@@H]1CC[C@]2(C(=O)O)CC[C@]3(C)[C@H](CC[C@@H]4[C@@]5(C)CC[C@H](O)C(C)(C)[C@@H]5CC[C@]43C)[C@@H]12 | 11.8 | 47 | 30.2 | 26.3 | > 50 | 45.8 | 32.9 | 27.2 | > 50 | 43.1
C=C(/C=C/c1cccnc1)[C@@H]1CC[C@]2(C(=O)O)CC[C@]3(C)[C@H](CC[C@@H]4[C@@]5(C)CC[C@H](O)C(C)(C)[C@@H]5CC[C@]43C)[C@@H]12 | 11.3 | 17.4 | 30.9 | 32.8 | > 50 | 14.2 | 26.2 | 30.9 | > 50 | > 50
C=C(/C=C/c1ccc(Br)cc1F)[C@@H]1CC[C@]2(C(=O)O)CC[C@]3(C)[C@H](CC[C@@H]4[C@@]5(C)CC[C@H](O)C(C)(C)[C@@H]5CC[C@]43C)[C@@H]12 | 22.4 | > 50 | 33.5 | 33.6 | 26 | > 50 | 32.5 | 29.7 | 43 | 33.7
C=C(/C=C/c1ccc(C(F)(F)F)cc1)[C@@H]1CC[C@]2(C(=O)O)CC[C@]3(C)[C@H](CC[C@@H]4[C@@]5(C)CC[C@H](O)C(C)(C)[C@@H]5CC[C@]43C)[C@@H]12 | 21.5 | 40.9 | 40.9 | 31.9 | 40.5 | 45.6 | 41.4 | 28.2 | 49.5 | 42.4
